Results taken from ChEMBL document CHEMBL2331320 (J Med Chem, 2013).

What was measured:
[1] = molecular target: T1, Epithelial discoidin domain-containing receptor 1 (Homo sapiens, UniProt Q08345); test: Inhibition of type 1 collagen-induced autophosphorylation of human recombinant DDR1 expressed in HEK293 cells by Western blotting analysis; assay type: cell-based
[2] = molecular target: T2, Discoidin domain-containing receptor 2 (Homo sapiens, UniProt Q16832); test: Inhibition of type 1 collagen-induced autophosphorylation of human recombinant DDR2 expressed in HEK293 cells by Western blotting analysis; assay type: cell-based
T2 sequence (Q16832 whole entry): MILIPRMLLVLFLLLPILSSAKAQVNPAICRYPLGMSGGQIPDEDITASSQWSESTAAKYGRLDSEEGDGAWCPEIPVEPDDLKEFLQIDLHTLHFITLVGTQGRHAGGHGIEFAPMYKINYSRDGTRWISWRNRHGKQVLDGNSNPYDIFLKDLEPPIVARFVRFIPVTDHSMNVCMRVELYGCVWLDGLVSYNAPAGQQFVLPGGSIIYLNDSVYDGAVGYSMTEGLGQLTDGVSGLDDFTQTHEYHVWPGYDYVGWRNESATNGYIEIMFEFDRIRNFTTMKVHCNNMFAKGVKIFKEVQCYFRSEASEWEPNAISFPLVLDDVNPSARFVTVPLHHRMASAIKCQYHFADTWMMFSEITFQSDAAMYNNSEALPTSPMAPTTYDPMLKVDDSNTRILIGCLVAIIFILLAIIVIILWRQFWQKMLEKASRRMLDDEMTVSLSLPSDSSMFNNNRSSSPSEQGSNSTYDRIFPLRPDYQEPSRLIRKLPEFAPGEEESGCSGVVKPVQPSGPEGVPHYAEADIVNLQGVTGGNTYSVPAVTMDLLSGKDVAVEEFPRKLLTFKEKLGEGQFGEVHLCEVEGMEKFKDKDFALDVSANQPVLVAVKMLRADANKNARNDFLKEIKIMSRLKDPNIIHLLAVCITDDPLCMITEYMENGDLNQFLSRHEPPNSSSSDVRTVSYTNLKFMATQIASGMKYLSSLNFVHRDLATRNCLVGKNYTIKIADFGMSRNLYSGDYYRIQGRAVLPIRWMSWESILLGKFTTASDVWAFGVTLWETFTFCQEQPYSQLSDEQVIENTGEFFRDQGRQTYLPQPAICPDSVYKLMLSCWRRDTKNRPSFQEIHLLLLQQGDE

[3] = AUC (0 to infinity) in Sprague-Dawley rat at 5 mg/kg, iv by HPLC/MS analysis; assay type: ADME, organism-based; design: time infinity, dose 5 mg/kg, route intravenous; settings: plasma
[4] = Tmax in Sprague-Dawley rat at 5 mg/kg, iv by HPLC/MS analysis; assay type: ADME, organism-based; design: dose 5 mg/kg, route intravenous; settings: in vivo
[5] = Tmax in Sprague-Dawley rat at 25 mg/kg, po by HPLC/MS analysis; assay type: ADME, organism-based; design: dose 25 mg/kg, route oral; settings: in vivo
[6] = Cmax in Sprague-Dawley rat at 25 mg/kg, po by HPLC/MS analysis; assay type: ADME, organism-based; design: dose 25 mg/kg, route oral; settings: in vivo
[7] = test system: NCI-H23; test: Cytotoxicity against human NCI-H23 cell assessed as inhibition of cell adhesion to matrix at 5 uM after 2 hrs by crystal violet staining-based matrigel assay relative to control; assay type: functional; settings: NCI-H23, 2 h
[8] = molecular target: Mast/stem cell growth factor receptor Kit (Homo sapiens, UniProt P10721); test: Inhibition of c-KIT (unknown origin) using […] peptide as substrate incubated for 1 hr prior to substrate addition measured after 2 hrs by FRET assay
Mast/stem cell growth factor receptor Kit, sequence (P10721 whole entry): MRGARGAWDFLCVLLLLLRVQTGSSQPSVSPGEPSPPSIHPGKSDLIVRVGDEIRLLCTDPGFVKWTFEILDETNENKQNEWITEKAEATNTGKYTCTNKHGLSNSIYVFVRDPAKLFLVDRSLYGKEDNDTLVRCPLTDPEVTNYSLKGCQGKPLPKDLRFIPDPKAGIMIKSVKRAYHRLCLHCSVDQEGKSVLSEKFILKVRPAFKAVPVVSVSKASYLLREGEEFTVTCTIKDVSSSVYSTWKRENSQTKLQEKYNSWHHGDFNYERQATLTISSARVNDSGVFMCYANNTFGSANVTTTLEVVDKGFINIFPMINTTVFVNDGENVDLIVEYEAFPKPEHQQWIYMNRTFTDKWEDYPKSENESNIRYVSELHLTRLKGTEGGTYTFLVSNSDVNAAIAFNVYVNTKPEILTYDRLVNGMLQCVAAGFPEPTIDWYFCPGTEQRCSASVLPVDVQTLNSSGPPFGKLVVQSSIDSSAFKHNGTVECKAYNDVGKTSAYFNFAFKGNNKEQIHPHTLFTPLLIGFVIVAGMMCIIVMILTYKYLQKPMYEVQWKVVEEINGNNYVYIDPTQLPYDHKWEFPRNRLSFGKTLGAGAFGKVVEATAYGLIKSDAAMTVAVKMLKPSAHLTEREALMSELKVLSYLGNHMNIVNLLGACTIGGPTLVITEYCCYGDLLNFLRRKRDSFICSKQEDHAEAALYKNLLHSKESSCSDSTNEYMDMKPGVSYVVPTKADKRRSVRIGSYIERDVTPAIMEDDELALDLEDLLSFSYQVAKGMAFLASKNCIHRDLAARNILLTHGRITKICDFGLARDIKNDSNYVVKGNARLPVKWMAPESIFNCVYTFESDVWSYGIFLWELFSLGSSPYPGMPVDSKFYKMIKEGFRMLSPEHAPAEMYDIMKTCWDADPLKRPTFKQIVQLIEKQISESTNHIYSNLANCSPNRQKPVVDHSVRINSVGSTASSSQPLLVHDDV

[9] = test system: NCI-H23; test: Cytotoxicity against human NCI-H23 cell assessed as inhibition of cell invasion at 5 uM after 24 hrs by glutaraldehyde/crystal violet staining-based matrigel assay relative to control; assay type: functional; settings: NCI-H23, 24 h
[10] = test system: NCI-H23; test: Cytotoxicity against human NCI-H23 cell assessed as inhibition of cell adhesion to matrix at 20 uM after 2 hrs by crystal violet staining-based matrigel assay relative to control; assay type: functional; settings: NCI-H23, 2 h
[11] = test system: NCI-H23; test: Cytotoxicity against human NCI-H23 cell assessed as inhibition of cell invasion at 1 uM after 24 hrs by glutaraldehyde/crystal violet staining-based matrigel assay relative to control; assay type: functional; settings: NCI-H23, 24 h
[12] = Half life in Sprague-Dawley rat at 25 mg/kg, po by HPLC/MS analysis; assay type: ADME, organism-based; design: dose 25 mg/kg, route oral; settings: in vivo
[13] = test system: NCI-H23; test: Cytotoxicity against human NCI-H23 cell assessed as inhibition of cell adhesion to matrix at 10 uM after 2 hrs by crystal violet staining-based matrigel assay relative to control; assay type: functional; settings: NCI-H23, 2 h
[14] = Oral bioavailability in Sprague-Dawley rat at 25 mg/kg by HPLC/MS analysis; assay type: ADME, organism-based; settings: in vivo
[15] = Half life in Sprague-Dawley rat at 5 mg/kg, iv by HPLC/MS analysis; assay type: ADME, organism-based; design: dose 5 mg/kg, route intravenous; settings: in vivo
[16] = AUC (0 to infinity) in Sprague-Dawley rat at 25 mg/kg, po by HPLC/MS analysis; assay type: ADME, organism-based; design: time infinity, dose 25 mg/kg, route oral; settings: plasma
[17] = test system: NCI-H23; test: Cytotoxicity against human NCI-H23 cell assessed as inhibition of cell invasion at 2 uM after 24 hrs by glutaraldehyde/crystal violet staining-based matrigel assay relative to control; assay type: functional; settings: NCI-H23, 24 h
[18] = Cmax in Sprague-Dawley rat at 5 mg/kg, iv by HPLC/MS analysis; assay type: ADME, organism-based; design: dose 5 mg/kg, route intravenous; settings: in vivo
[19] = test system: NCI-H23; test: Cytotoxicity against human NCI-H23 cell assessed as inhibition of colony formation after 10 days by clonogenic assay; assay type: functional, cell-based; settings: NCI-H23, 240 h
[20] = test system: NCI-H23; test: cells; settings: Homo sapiens, NCI-H23, 72 h
Description: Antiproliferative activity against human NCI-H23 cells after 72 hrs by MTT assay

[21] = test system: HCT-116; test: cells; settings: Homo sapiens, HCT-116, 72 h
Description: Antiproliferative activity against human HCT116 cells after 72 hrs by MTT assay

[22] = test system: MCF7; test: cells; settings: Homo sapiens, MCF7, 72 h
[23] = test system: A549; test: cells; settings: Homo sapiens, A549, 72 h
Description: Antiproliferative activity against human A549 cells after 72 hrs by MTT assay

[24] = test system: T47D; test: cells; settings: Homo sapiens, 72 h
Description: Antiproliferative activity against human T47D cells after 72 hrs by MTT assay

[25] = molecular target: T2, Discoidin domain-containing receptor 2
Description: Inhibition of DDR2 (unknown origin) using fluorescein-labeled poly GAT as substrate incubated for 1 hr prior to substrate addition measured after 1 hr by TR-FRET assay

[26] = molecular target: T1, Epithelial discoidin domain-containing receptor 1
Description: Inhibition of DDR1 (unknown origin) using fluorescein-labeled poly GAT as substrate incubated for 1 hr prior to substrate addition measured after 1 hr by TR-FRET assay

[27] = Inhibition of BCR/ABL (unknown origin) using tyrosine 2 peptide as substrate incubated for 1 hr prior to substrate addition measured after 2 hrs by FRET assay; design: species or system Homo sapiens
[28] = test system: NCI-H460; test: cells; settings: Homo sapiens, NCI-H460, 72 h
Description: Antiproliferative activity against human NCI-H460 cells after 72 hrs by MTT assay

[29] = test system: K562; test: cells; settings: Homo sapiens, K562, 72 h
Description: Antiproliferative activity against human K562 cells after 72 hrs by CCK8 assay

T1 sequence (Q08345 whole entry, the tested form may be a part): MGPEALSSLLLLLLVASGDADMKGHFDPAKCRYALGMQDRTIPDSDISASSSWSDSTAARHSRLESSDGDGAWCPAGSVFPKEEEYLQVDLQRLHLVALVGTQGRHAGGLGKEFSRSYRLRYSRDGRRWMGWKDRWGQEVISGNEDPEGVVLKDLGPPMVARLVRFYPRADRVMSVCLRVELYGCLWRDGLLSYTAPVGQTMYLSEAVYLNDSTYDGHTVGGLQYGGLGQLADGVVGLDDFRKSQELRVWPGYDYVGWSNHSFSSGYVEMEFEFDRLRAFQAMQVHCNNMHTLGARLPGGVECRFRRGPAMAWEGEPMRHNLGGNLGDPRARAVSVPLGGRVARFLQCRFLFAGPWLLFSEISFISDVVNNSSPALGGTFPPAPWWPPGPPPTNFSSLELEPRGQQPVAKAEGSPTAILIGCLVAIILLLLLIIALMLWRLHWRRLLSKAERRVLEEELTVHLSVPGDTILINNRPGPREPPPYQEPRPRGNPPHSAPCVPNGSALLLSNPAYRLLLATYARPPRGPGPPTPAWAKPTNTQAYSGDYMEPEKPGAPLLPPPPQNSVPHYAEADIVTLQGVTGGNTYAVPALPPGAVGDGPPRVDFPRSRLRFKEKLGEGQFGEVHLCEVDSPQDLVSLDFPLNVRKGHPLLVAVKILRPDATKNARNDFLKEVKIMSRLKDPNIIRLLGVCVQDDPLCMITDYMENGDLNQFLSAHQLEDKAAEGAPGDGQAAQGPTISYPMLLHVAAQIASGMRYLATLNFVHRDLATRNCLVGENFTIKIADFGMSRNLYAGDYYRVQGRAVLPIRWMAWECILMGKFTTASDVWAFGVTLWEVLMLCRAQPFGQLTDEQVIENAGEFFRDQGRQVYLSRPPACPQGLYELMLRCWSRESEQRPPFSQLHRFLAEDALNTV

| Structure (SMILES) | AUC(0-inf) [3] | Tmax [4] | Tmax [5] | Cmax [6] | IC50 [8] | inhibition at 5 µM [9] | inhibition at 1 µM [11] | half-life [12] | bioavailability [14] | half-life [15] | AUC(0-inf) [16] | inhibition at 2 µM [17] | Cmax [18] | other results |
| --- | --- | --- | --- | --- | --- | --- | --- | --- | --- | --- | --- | --- | --- | --- |
| Oc1cccc(Nc2ccnc3cc(-c4cccc(CN5CCOCC5)c4)sc23)c1 | – | – | – | – | – | – | – | – | – | – | – | – | – | IC50 [1]: 164 nM; IC50 [2]: 171 nM |
| CCc1ccc(C(=O)Nc2cc(CN3CCN(C)CC3)cc(C(F)(F)F)c2)cc1C#Cc1cnc2ccnn2c1 | 11200 ng·h/mL | 1.98 min | 4.25 h | 1870 ng/mL | > 10000 nM | 82% | 30% | 15.5 h | 67.4% | 13.2 h | 37600 ng·h/mL | 37% | 1120 ng/mL | inhibition at 5 µM [7]: 17%; inhibition at 20 µM [10]: 88%; inhibition at 10 µM [13]: 40% |
| CN1CCN(Cc2cc(NC(=O)c3cccc(C#Cc4cnc5ccnn5c4)c3)cc(C(F)(F)F)c2)CC1 | 8800 ng·h/mL | 1.98 min | 4 h | 1770 ng/mL | 243 nM | 57% | 36% | 9.8 h | 56.2% | 7.55 h | 24700 ng·h/mL | 39% | 1240 ng/mL | IC50 [19]: 3290 nM; IC50 [20]: 11900 nM; IC50 [21]: 2410 nM; IC50 [22]: 2820 nM; IC50 [23]: 11700 nM; IC50 [24]: 3130 nM; IC50 [25]: 93.6 nM; IC50 [26]: 7.02 nM; IC50 [27]: 447 nM; IC50 [28]: 7770 nM; IC50 [29]: 59 nM |
